Data: US8420012B2, “Use of monochlorourea to treat industrial waters” (Hercules Incorporated, priority 2009, dated 2013)

Legend:
[1] = Effect of pH on stability of monochlorourea in D2O by 13C NMR; assay type: physicochemical
Excerpt: The effect of pH on the stability of monochlorourea was significant. Carbon 13 labeled urea was used to examine the stability of the products overnight in D2O. […] However, completely acidifying all the solutions to a pH of 2.5 did have a significant effect on both the yield and the stability of the product.

[2] = Free vs. total chlorine (Hach DPD) of 1000 ppm solutions in synthetic hard water; assay type: physicochemical; conditions: synthetic hard water 250 ppm hardness, 35° C.
Procedure: Differences exist between monochlorourea and sodium hypochlorite, namely, sodium hypochlorite is a free chlorine generating biocide while monochlorourea is not. Free and total chlorine are measured using the DPD reagents from the Hach Company. The test is a colorimetric test in which more intense color development results as more oxidizing chlorine is present in the sample. The rate at which the dye reacts with the oxidizing chemical depends on whether the chlorine is free or bound. Total chlorine includes both free and bound chlorine.
The rate at which the dye reacts with total chlorine is accelerated by the addition of iodide to the test. This differentiates the free and total chlorine. The iodide reacts rapidly with bound oxidizing chlorine to form iodine and chloride. The iodine, a free oxidizing halogen, reacts very rapidly with the DPD dye.
One thousand ppm (as total Cl2) solutions of monochlorourea and sodium hypochlorite were prepared in synthetic hard water with 250 ppm hardness. Total and free chlorine readings were taken at 0 minutes, 30 minutes, 2 hours, and 4 hours. Untreated hard water solutions were used as blanks. The samples were stored at 35° C.+/−2° C. with mild stirring. pH values are provided as a reference points for the conditions of the chlorine species at the various test times.
Table 3 compares duplicate samples of sodium hypochlorite and monochlorourea. Significant differences exist between the free and total chlorine values of these chemicals. The release of free chlorine from monochlorourea is an energetically unfavorable reaction. Monochlorourea is a combined chlorine species that functions to kill bacteria not as a donor of free chlorine, but as a biocide itself.
Made-up 1 Liter sample of synthetic hard water with 250 ppm hardness.
Took 100 mL aliquots and set up duplicate samples of biocides at least 1,000 ppm based on total Chlorine readings.
Monitored pH, free chlorine and total chlorines at timed intervals of—0 min, 30 min, 2 hours, and 4 hours,
Monitored un-treated (blank) hard water at time 0 to serve as baseline.
Between sampling stored all samples in 35° C.+/−2° C. Heater/shaker with mild stirring.

P. aeruginosa = assay: Viability of P. aeruginosa inoculated in paper mill process water, plated after 60 minutes; assay type: cell-based, Pseudomonas aeruginosa; conditions: papermill process water, average of three
Procedure: Paper mill process water samples were collected from a paper mill producing super calendered paper Samples were inoculated with P. aeruginosa, and then dosed with monochlorourea and sodium hypochlorite and plated after 60 minutes.

Pseudomonas aeruginosa [3] = assay: Viable cell counts of P. aeruginosa in PBS after 60 minutes exposure to biocide (Example 6); assay type: cell-based; conditions: average of three
Procedure: The efficacy of monochlorourea as a biocide, as synthesized in Example 1, was tested against the bacterium Pseudomonas aeruginosa. The Hach DPD chlorine test (Hach Company, Loveland, Colo.) was used to measure the total available chlorine concentrations of each biocide tested. Concentrations are reported in units of milligrams per liter as Cl2. P. aeruginosa was grown overnight in Trypticase Soy Broth at 37° C. The culture was split into aliquots of equal volume, suspended in physiologically buffered saline (PBS). In this example, the cultures were exposed to […], 5.0 mg/L, 10.0 mg/L, and 15.0 mg/L of biocide for 60 minutes. The cultures were then evaluated by measuring viable cell counts after exposure to the biocides.

Pseudomonas aeruginosa [4] = assay: Log10 reduction of viable P. aeruginosa in PBS after exposure to biocide (Example 8); assay type: cell-based; conditions: average of three
Procedure: The efficacy of dimethyl monochlorourea (DMCU) as a biocide, as synthesized in Example 5, was tested against the bacterium Pseudomonas aeruginosa. The Hach DPD chlorine test (Hach Company, Loveland, Colo.) was used to measure the total available chlorine concentrations of each biocide tested. Concentrations are reported in units of milligrams per liter as Cl2. P. aeruginosa was grown overnight in Trypticase Soy Broth at 37° C. The culture was split into aliquots of equal volume and suspended in physiologically buffered saline (PBS). […] The cultures were then evaluated by measuring viable cell counts after exposure to the biocides.

[5] = Stability in the presence of chlorine demand (0.1× nutrient broth), total chlorine by Hach DPD; assay type: physicochemical; conditions: 0.1× nutrient broth, initial 5 ppm chlorine, 37° C.
Procedure: This can be seen in Table 4 below. 20 mL aliquots of a 0.1× nutrient broth were used and the active species added such that the initial concentration of each was equivalent to 5 ppm chlorine as measured by the Hach. To prepare the nutrient broth Difco Nutrient Broth (8 grams) was dissolved in 1 L of deionized water, and subsequently diluted to 0.1× of the initial concentration prior to being autoclaved at 121° C. for 15 minutes. 100 mL solutions of each of the actives were made, and the concentration was measured using standard Hach test procedures on a BetzDearborn DR 2010 Spectrophotometer. At each time point a 1:10 dilution of the solution in DI water was made and placed in the spectrophotometer cell. Hach Permachem DPD Total Chlorine Reagent was added and the cell was placed into the spectrophotometer. The ppm of Cl2 was measured at 0, 1, 3, 6, 24, and 48 hours. A fresh dilution was made at each time point, if necessary, and the bottles of solution were placed in a shaking incubator at 37° C. in between runs. Dimethyl monochlorourea is notated as DMCU. Bis-hydroxymethyl chlorourea is BHMCU.

[6] = Stability of dimethylchlorourea aqueous solutions at different pH and temperature by UV-Vis Spectroscopy; assay type: physicochemical
Excerpt: The stability of dimethylchlorourea was also examined under a variety of different conditions including pH and temperature. […] In the following table the initial concentration C0, the final concentration Cf, the final time tf and the half life t½, are given.

[7] = Time = 2 hours, listed as MCU-1
[8] = Time = 2 hours, listed as MCU-2
[9] = Time = 4 hours, listed as MCU-1
[10] = Time = 4 hours, listed as MCU-2
[11] = Time = 30 min, listed as Bleach-1
[12] = Time = 30 min, listed as Bleach-2
[13] = Time = 2 hours, listed as Bleach-1
[14] = Time = 2 hours, listed as Bleach-2
[15] = Time = 4 hours, listed as Bleach-1
[16] = Time = 4 hours, listed as Bleach-2

NC(=O)NCl [MCU, N-chlorourea]
Stability by 13C NMR ([1]; acidic conditions (pH of 2.5), overnight): no indication by ^13C NMR of any decomposition
Stability by 13C NMR ([1]; basic conditions, 12 hours): no peak in the ^13C NMR from chlorourea could be detected
Free Cl ([2]; Time = 0): 0 ppm
Tot Cl ([2]; Time = 0, listed as MCU-1): 1620 ppm
Tot Cl ([2]; Time = 0, listed as MCU-2): 1190 ppm
Free Cl ([2]; Time = 30 min, listed as MCU-1): 10 ppm
Tot Cl ([2]; Time = 30 min, listed as MCU-1): 1500 ppm
Free Cl ([2]; Time = 30 min, listed as MCU-2): 20 ppm
Tot Cl ([2]; Time = 30 min, listed as MCU-2): 1210 ppm
Free Cl [2, 7]: 10 ppm
Tot Cl [2, 7]: 1490 ppm
Free Cl [2, 8]: 30 ppm
Tot Cl [2, 8]: 1120 ppm
Free Cl [2, 9]: 10 ppm
Tot Cl [2, 9]: 1230 ppm
Free Cl [2, 10]: 20 ppm
Tot Cl [2, 10]: 1000 ppm
log10 of viable cfu/mL (P. aeruginosa; 1.0 mg/l): 9.9 log10 cfu/mL
log10 of viable cfu/mL (P. aeruginosa; 3.0 mg/l): 4.3 log10 cfu/mL
log10 of viable cfu/mL (P. aeruginosa; 5.0 mg/l): 3.2 log10 cfu/mL
log10 of viable cfu/mL (P. aeruginosa; 10.0 mg/l): 3.1 log10 cfu/mL
log10 of viable cfu/mL remaining after exposure (Pseudomonas aeruginosa [3]; 5.0 mg/L as Cl2, 60 minutes): 4.0 log10 cfu/mL
log10 of viable cfu/mL remaining after exposure (Pseudomonas aeruginosa [3]; 10.0 mg/L as Cl2, 60 minutes): 2.7 log10 cfu/mL
log10 of viable cfu/mL remaining after exposure (Pseudomonas aeruginosa [3]; 15.0 mg/L as Cl2, 60 minutes): 2.3 log10 cfu/mL

[Na+].[O-]Cl [NaOCl, Sodium Hypochlorite]
Free Cl ([2]; Time = 0, listed as Bleach-1): 900 ppm
Tot Cl ([2]; Time = 0, listed as Bleach-1): 950 ppm
Free Cl ([2]; Time = 0, listed as Bleach-2): 950 ppm
Tot Cl ([2]; Time = 0, listed as Bleach-2): 1060 ppm
Free Cl [2, 11]: 860 ppm
Tot Cl [2, 11]: 890 ppm
Free Cl [2, 12]: 880 ppm
Tot Cl [2, 12]: 1020 ppm
Free Cl [2, 13]: 810 ppm
Tot Cl [2, 13]: 920 ppm
Free Cl [2, 14]: 840 ppm
Tot Cl [2, 14]: 1010 ppm
Free Cl [2, 15]: 840 ppm
Tot Cl [2, 15]: 940 ppm
Free Cl [2, 16]: 950 ppm
Tot Cl [2, 16]: 1040 ppm
log10 reduction of viable cfu/mL (LR) (Pseudomonas aeruginosa [4]; 1 mg/L): 5.3 log10
log10 reduction of viable cfu/mL (LR) (Pseudomonas aeruginosa [4]; 3 mg/L): 5.4 log10
log10 reduction of viable cfu/mL (LR) (Pseudomonas aeruginosa [4]; 5 mg/L): 6.7 log10
log10 of viable cfu/mL (P. aeruginosa; 1.0 mg/l): 9.9 log10 cfu/mL
log10 of viable cfu/mL (P. aeruginosa; 3.0 mg/l): 9.8 log10 cfu/mL
log10 of viable cfu/mL (P. aeruginosa; 5.0 mg/l): 8.7 log10 cfu/mL
log10 of viable cfu/mL (P. aeruginosa; 10.0 mg/l): 4.5 log10 cfu/mL
log10 of viable cfu/mL remaining after exposure (Pseudomonas aeruginosa [3]; 5.0 mg/L as Cl2, 60 minutes): 9.7 log10 cfu/mL
log10 of viable cfu/mL remaining after exposure (Pseudomonas aeruginosa [3]; 10.0 mg/L as Cl2, 60 minutes): 9.1 log10 cfu/mL
log10 of viable cfu/mL remaining after exposure (Pseudomonas aeruginosa [3]; 15.0 mg/L as Cl2, 60 minutes): 4.4 log10 cfu/mL
Stability: total chlorine remaining relative to initial ([5]; 0 hr): 100%
Stability: total chlorine remaining relative to initial ([5]; 3 hrs): 22%
Stability: total chlorine remaining relative to initial ([5]; 6 hrs): 6%
Stability: total chlorine remaining relative to initial ([5]; 24 hrs): 2%
Stability: total chlorine remaining relative to initial ([5]; 48 hrs): 1%

CNC(=O)N(C)Cl [DMCU, N-chloro-N,N′-dimethylurea]
log10 reduction of viable cfu/mL (LR) (Pseudomonas aeruginosa [4]; 0.3 mg/L): 0.45 log10
log10 reduction of viable cfu/mL (LR) (Pseudomonas aeruginosa [4]; 0.9 mg/L): 1.49 log10
log10 reduction of viable cfu/mL (LR) (Pseudomonas aeruginosa [4]; 1.5 mg/L): 3.99 log10
half life t½ ([6]; 50 ° C., pH 3): 4 days
final concentration Cf ([6]; 50 ° C., pH 3, C0 575 ppm, tf 1 Days): 491 ppm
half life t½ ([6]; 50 ° C., pH 5): 82 days
final concentration Cf ([6]; 50 ° C., pH 5, C0 576 ppm, tf 3 Days): 561 ppm
half life t½ ([6]; 50 ° C., pH 12): 0.417 days
final concentration Cf ([6]; 50 ° C., pH 12, C0 478 ppm, tf 6 Hours): 315 ppm
half life t½ ([6]; 75 ° C., pH 3): 0.75 days
final concentration Cf ([6]; 75 ° C., pH 3, C0 576 ppm, tf 24 Hours): 231 ppm
half life t½ ([6]; 75 ° C., pH 7): 14 days
final concentration Cf ([6]; 75 ° C., pH 7, C0 590 ppm, tf 1 Days): 562 ppm
half life t½ ([6]; 75 ° C., pH 12): 0.17 days
final concentration Cf ([6]; 75 ° C., pH 12, C0 423 ppm, tf 24 Hours): 4 ppm
half life t½ ([6]; RT, pH 2): 41 days
final concentration Cf ([6]; RT, pH 2, C0 393 ppm, tf 34 Days): 220 ppm
half life t½ ([6]; RT, pH 3): 54 days
final concentration Cf ([6]; RT, pH 3, C0 577 ppm, tf 28 Days): 402 ppm
half life t½ ([6]; RT, pH 5): 84 days
final concentration Cf ([6]; RT, pH 5, C0 603 ppm, tf 34 Days): 456 ppm
half life t½ ([6]; RT, pH 7): 104 days
final concentration Cf ([6]; RT, pH 7, C0 590 ppm, tf 33 Days): 474 ppm
half life t½ ([6]; RT, pH 9): 106 days
final concentration Cf ([6]; RT, pH 9, C0 589 ppm, tf 33 Days): 475 ppm
half life t½ ([6]; RT, pH 12): 2 days
final concentration Cf ([6]; RT, pH 12, C0 423 ppm, tf 1 Days): 280 ppm
half-life ([6]; aqueous solution, acidic and basic conditions at room temperature, read-out: half lives): 2 to 100 days

NCl [monochloramine]
Stability: total chlorine remaining relative to initial ([5]; 0 hr): 100%
Stability: total chlorine remaining relative to initial ([5]; 3 hrs): 24%
Stability: total chlorine remaining relative to initial ([5]; 6 hrs): 6%
Stability: total chlorine remaining relative to initial ([5]; 24 hrs): 2%
Stability: total chlorine remaining relative to initial ([5]; 48 hrs): 1%
